US5773646A, “Meta-substituted phenylene derivatives” (G. D. Searle & Co., priority 1997, dated 1998)
Where a name gives a salt, the structure may show the parent alone.

Columns and labels:
[1] = target: T1, Human fibrinogen receptor (αIIb β3) (Homo sapiens, UniProt P05106+P08514); experiment: Purified IIb/IIIa receptor assay (solid phase receptor assay, biotinylated vitronectin competition); settings: inhibition of 50% of the maximum binding of biotinylated vitronectin; 1 nM labeled ligand, 2 hours, room temperature, highest concentration of test compound 1.0×10^-4 M
T1 construct: Human fibrinogen receptor (αIIb β3) was purified from outdated platelets; from tissue; host or cells: outdated human platelets
How it was run: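 Platelet-purified αIIbβ3 was coated at 100 ng/well in TBS with 1 mM Ca²⁺/Mg²⁺/Mn²⁺, pH 7.4, then BSA-blocked. Compound (up to 1.0×10⁻⁴ M final) competed with 1 nM biotinylated vitronectin for 2 h at room temperature. Bound ligand was detected with HRP anti-biotin at A450, normalized to maximum binding, and curve-fitted.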

[2] = target: T2, Human vitronectin receptor (αv β3) (Homo sapiens, UniProt P05106+P06756); experiment: Vitronectin adhesion assay (solid phase receptor assay, biotinylated vitronectin competition); type: binding; settings: inhibition of 50% of the maximum binding of biotinylated vitronectin; 1 nM labeled ligand, 2 hours, room temperature, highest concentration of test compound 1.0×10^-4 M; read-out: AvB3 IC50
T2 construct: Human vitronectin receptor(αv β3) was purified from human placenta; from tissue; host or cells: human placenta
How it was run: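 Placenta-purified αvβ3 coated at 1.0 μg/mL in TBS (1 mM Ca, Mg, Mn, pH 7.4), overnight 4 °C. Compound competed 2 h at RT with 1 nM biotinylated vitronectin (final; top compound 1.0×10^-4 M); bound ligand detected by HRP anti-biotin/OPD at 450 nm, normalized to no-competitor controls, four-parameter fit.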

Compound	IC50 [1] [µM]	IC50 [2] [µM]
CC(C)C(CC(=O)O)c1cccc(CNC(=O)c2cccc(NC(=N)N)c2)c1 (stereo not drawn) [Example 43, 3-[[[[3-[(aminoiminomethyl)amino]phenyl]carbonyl]amino]methyl]-β-(1-methylethyl) benzenepropanoic acid, trifluoroacetate salt]	0.798	0.00718
O=C(O)CC(c1ccccc1)c1cccc(NS(=O)(=O)c2cccc(NC(=O)NCc3ccccc3)c2)c1 (stereo not drawn) [Example 13, 3-[[[3-[[[(phenylmethyl)amino]carbonyl]amino]phenyl]sulfonyl]amino]-β-phenylbenzenepropanoic acid, monohydrate]	11.8	0.163
N=C(N)Nc1cccc(COc2cccc(C(CC(=O)O)c3ccccc3)c2)c1 (stereo not drawn) [Example 96, 3-[[3-[(aminoiminomethyl)amino]phenyl]methoxy]-β-phenylbenzenepropanoic Acid, Trifluoroacetate Salt]	2.28	0.435
N=C(N)Nc1cccc(C(=O)Nc2cccc(CC(=O)O)c2)c1 [Example 50, 3-[[[3-[(aminoiminomethyl)amino]phenyl]carbonyl]amino]benzeneacetic acid, trifluoroacetate salt]	55.5	> 100
N=C(N)Nc1cccc(/C=C\c2cccc(C(CC(=O)O)c3ccccc3)c2)c1 (stereo not drawn) [Example 76, 3-[2Z-[3-[(aminoiminomethyl)amino]phenyl]ethenyl]-β-phenylbenzenepropanoic Acid, Bis(trifluoroacetate) Salt]	1.77	0.087
N=C(N)Nc1cccc(CC(=O)Nc2cccc(CCC(=O)O)c2)c1 [Example 46, 3-[[[3-[(aminoiminomethyl)amino]phenyl]acetyl]amino]benzenepropanoic acid, trifluoroacetate salt]	2.28	2.44
3-[[[[3-[(aminothioxomethyl)amino]phenyl]carbonyl]amino]methyl]benzenepropanoic acid [Example 25]	26.9	7.46
N=C(N)Nc1cccc(S(=O)(=O)Nc2cccc(C3CC(=O)Oc4ccccc43)c2)c1 (stereo not drawn) [Example 100, 3-[(aminoiminomethyl)amino]-N-[3-(3,4-dihydro-2-oxo-2H-benzopyran-4-yl)phenyl]benzenesulfonamide, Trifluoroacetate Salt]	2.34	0.0218
N=C(N)Nc1cccc(C(=O)NCc2cccc(C(CC(=O)O)c3cc(Cl)cc(Cl)c3)c2)c1 (stereo not drawn) [Example 54]	0.145	0.0198
CCOC(=O)CCc1cccc(CNC(=O)c2cccc(C#N)c2)c1 [Example 19, ethyl 3-[[[[3-(cyano)phenyl]carbonyl]amino]methyl]benzenepropanoate, diacetate salt]	57.6	> 100
O=C(O)CC(c1ccccc1)c1cccc(OCc2cccc(NC3=NCCN3)c2)c1 (stereo not drawn) [Example 99, 3-[[3-[(4,5-dihydro-1H-imidazol-2-yl)amino]phenyl]methoxy]-β-phenylbenzenepropanoic Acid, Trifluoroacetate Salt]	1	0.0486
N=C(N)Nc1cccc(C(=O)NCc2cccc(CC(=O)O)c2)c1 [Example 49, 3-[[[[3-[(aminoiminomethyl)amino]phenyl]carbonyl]amino]methyl]benzeneacetic acid, trifluoroacetate salt]	12.7	1.68
C[C@H](CC(=O)O)c1cccc(CNC(=O)c2cccc(NC(=N)N)c2)c1 [Example 56, 3-[[[[3-[(aminoiminomethyl)amino]phenyl]carbonyl]amino]methyl]-βR-methylbenzenepropanoic acid, trifluoroacetate salt hydrate]	1.31	0.00688
N=C(N)Nc1cccc(CNc2cccc(C(CC(=O)O)c3ccccc3)c2)c1 (stereo not drawn) [Example 11, 3-[[[3-[(aminoiminomethyl)amino]phenyl]methyl]amino]-β-phenylbenzenepropanoic acid, trifluoroacetate salt]	2.44	0.554
CC(CC(=O)O)c1cccc(CNC(=O)c2cccc(Nc3nc4ccccc4[nH]3)c2)c1 (racemic) [Example 69, (±) 3-[[[[3-[(1H-benzimidazol-2-yl)amino]phenyl]carbonyl]amino]methyl]-β-methyl benzenepropanoic acid]	10.1	0.425
NC(=O)Nc1cccc(C(=O)Nc2cccc(C(CC(=O)O)c3ccccc3)c2)c1 (stereo not drawn) [Example 5, 3-[[[3-[(aminocarbonyl)amino]phenyl]carbonyl]amino]-β-phenylbenzenepropanoic acid]	21.6	15.3
COc1ccccc1C(CC(=O)O)c1cccc(CNC(=O)c2cccc(NC(=N)N)c2)c1 (racemic) [Example 63, (±) -[3-[[[[3-[(aminoiminomethyl)amino]phenyl]carbonyl]amino]methyl]phenyl]-2-methoxybenzene propanoic acid, trifluoroacetate salt hydrate]	0.454	0.0235
N=C(N)Nc1cccc(S(=O)(=O)Nc2cccc(C(CC(=O)O)c3c(F)c(F)cc(F)c3F)c2)c1 (stereo not drawn) [Example 82, β-[3-[[[3-[(aminoiminomethyl)amino]phenyl]sulfonyl]amino]phenyl]-2,3,5,6-tetrafluorobenzenepropanoic Acid, Trifluoroacetate Salt]	11.7	0.191
CCC(CC(=O)O)c1cccc(CNC(=O)c2ccc(Cl)c(NC(=N)N)c2)c1 (racemic) [Example 58, (±) 3-[[[[3-[(aminoiminomethyl)amino]-4-chlorophenyl]carbonyl]amino]methyl]-β-ethylbenzenepropanoic acid, trifluoroacetate salt]	5.18	0.0116
CCC(CC(=O)O)c1cccc(CNC(=O)c2cc(NC(=N)N)cc(C(F)(F)F)c2)c1 (racemic) [Example 59, (±) 3-[[[[3-[(aminoiminomethyl)amino]-5(trifluoromethyl)phenyl]carbonyl]amino]methyl]-β-ethylbenzenepropanoic acid, trifluoroacetate salt]	3.13	0.00388
CC(CC(=O)O)c1cccc(CNC(=O)c2cccc(NC(N)=NC(N)=O)c2)c1 (racemic) [Example 65, (±) 3[[[[3-[[amino[(aminocarbonyl)imino]methyl]amino]phenyl]carbonyl]amino]methyl]-β-methylbenzenepropanoic acid, trifluoroacetate salt]	4.01	0.023
N=C(N)Nc1cccc(S(=O)(=O)Nc2cccc(C(CC(=O)O)c3cc(F)cc(F)c3)c2)c1 (stereo not drawn) [Example 78, β-[3-[[[3-[(aminoiminomethyl)amino]phenyl]sulfonyl]amino]phenyl]-3,5-difluorobenzenepropanoic Acid, Trifluoroacetate Salt]	0.803	0.00254
NC(=O)Nc1cccc(S(=O)(=O)Nc2cccc(C(CC(=O)O)c3ccccc3)c2)c1 (stereo not drawn) [Example 8, 3-[[[3-[(aminocarbonyl)amino]phenyl]sulfonyl]amino]-β-phenylbenzenepropanoic acid]	11.6	0.641
CC(CC(=O)OC(C)(C)C)c1cccc(CNC(=O)c2cccc(NC(=N)N)c2)c1 (stereo not drawn) [Example 39, 1,1-dimethylethyl 3-[[[[3-[(aminoiminomethyl)amino]phenyl]carbonyl]amino]methyl]-β-methyl)benzenepropanoate, trifluoroacetate salt]	62.4	8.56
